Results reported in the NIST ThermoML archive (doi:10.1016/j.jct.2014.05.016).

Experiment: xn = mol fraction of the nth substance listed
Settings: 100 kPa, Liquid; for viscosity: Concentric cylinders viscometry; for mass density: Vibrating tube method

C[n+]1ccn(CCO)c1.F[B-](F)(F)F [1-(2-hydroxyethyl)-3-methylimidazolium tetrafluoroborate] + CCCCn1cc[n+](C)c1.F[B-](F)(F)F
Settings | mass density [kg/m3] | viscosity [mPa·s]
293.15 K, x1 = 0.1003 | – | 141.5
293.15 K, x1 = 0.101 | 1217.5 | –
293.15 K, x1 = 0.2001 | – | 138.1
293.15 K, x1 = 0.201 | 1230.9 | –
293.15 K, x1 = 0.2997 | – | 139.6
293.15 K, x1 = 0.3002 | 1245.7 | –
293.15 K, x1 = 0.3999 | – | 140.6
293.15 K, x1 = 0.4006 | 1261.4 | –
293.15 K, x1 = 0.4996 | – | 138.7
293.15 K, x1 = 0.5009 | 1276.1 | –
293.15 K, x1 = 0.5991 | 1292.3 | 143.1
293.15 K, x1 = 0.6997 | – | 144.7
293.15 K, x1 = 0.7001 | 1310.8 | –
293.15 K, x1 = 0.7999 | – | 147.1
293.15 K, x1 = 0.8 | 1326.3 | –
293.15 K, x1 = 0.8995 | 1344.4 | –
293.15 K, x1 = 0.8998 | – | 152.3
293.15 K, x1 = 1 | 1362.4 | 153.6
298.15 K, x1 = 0.1003 | – | 107.8
298.15 K, x1 = 0.101 | 1214 | –
298.15 K, x1 = 0.2001 | – | 105.3
298.15 K, x1 = 0.201 | 1227.4 | –
298.15 K, x1 = 0.2997 | – | 106.6
298.15 K, x1 = 0.3002 | 1242 | –
298.15 K, x1 = 0.3999 | – | 107.4
298.15 K, x1 = 0.4006 | 1257.9 | –
298.15 K, x1 = 0.4996 | – | 105.4
298.15 K, x1 = 0.5009 | 1272.5 | –
298.15 K, x1 = 0.5991 | 1288.6 | 108.3
298.15 K, x1 = 0.6997 | – | 109.3
298.15 K, x1 = 0.7001 | 1307.6 | –
298.15 K, x1 = 0.7999 | – | 111.4
298.15 K, x1 = 0.8 | 1322.5 | –
298.15 K, x1 = 0.8995 | 1340.6 | –
298.15 K, x1 = 0.8998 | – | 114.1
298.15 K, x1 = 1 | 1358.7 | 115.1
303.15 K, x1 = 0.1003 | – | 83.64
303.15 K, x1 = 0.101 | 1210.4 | –
303.15 K, x1 = 0.2001 | – | 81.83
303.15 K, x1 = 0.201 | 1223.9 | –
303.15 K, x1 = 0.2997 | – | 82.64
303.15 K, x1 = 0.3002 | 1238.5 | –
303.15 K, x1 = 0.3999 | – | 83.2
303.15 K, x1 = 0.4006 | 1254.3 | –
303.15 K, x1 = 0.4996 | – | 81.76
303.15 K, x1 = 0.5009 | 1268.9 | –
303.15 K, x1 = 0.5991 | 1284.9 | 83.78
303.15 K, x1 = 0.6997 | – | 84.42
303.15 K, x1 = 0.7001 | 1304.2 | –
303.15 K, x1 = 0.7999 | – | 85.38
303.15 K, x1 = 0.8 | 1318.9 | –
303.15 K, x1 = 0.8995 | 1336.9 | –
303.15 K, x1 = 0.8998 | – | 87.51
303.15 K, x1 = 1 | 1354.8 | 87.98
308.15 K, x1 = 0.1003 | – | 66.1
308.15 K, x1 = 0.101 | 1206.9 | –
308.15 K, x1 = 0.2001 | – | 64.77
308.15 K, x1 = 0.201 | 1220.5 | –
308.15 K, x1 = 0.2997 | – | 65.41
308.15 K, x1 = 0.3002 | 1234.9 | –
308.15 K, x1 = 0.3999 | – | 65.73
308.15 K, x1 = 0.4006 | 1250.7 | –
308.15 K, x1 = 0.4996 | – | 64.71
308.15 K, x1 = 0.5009 | 1265.2 | –
308.15 K, x1 = 0.5991 | 1281.3 | 66.04
308.15 K, x1 = 0.6997 | – | 66.38
308.15 K, x1 = 0.7001 | 1300.8 | –
308.15 K, x1 = 0.7999 | – | 67.14
308.15 K, x1 = 0.8 | 1315.2 | –
308.15 K, x1 = 0.8995 | 1333.1 | –
308.15 K, x1 = 0.8998 | – | 68.51
308.15 K, x1 = 1 | 1351.2 | 68.59
313.15 K, x1 = 0.1003 | – | 53.11
313.15 K, x1 = 0.101 | 1203.3 | –
313.15 K, x1 = 0.2001 | – | 52.17
313.15 K, x1 = 0.201 | 1216.9 | –
313.15 K, x1 = 0.2997 | – | 52.58
313.15 K, x1 = 0.3002 | 1231.3 | –
313.15 K, x1 = 0.3999 | – | 52.83
313.15 K, x1 = 0.4006 | 1247.1 | –
313.15 K, x1 = 0.4996 | – | 51.96
313.15 K, x1 = 0.5009 | 1261.6 | –
313.15 K, x1 = 0.5991 | 1277.7 | 52.99
313.15 K, x1 = 0.6997 | – | 53.19
313.15 K, x1 = 0.7001 | 1297.3 | –
313.15 K, x1 = 0.7999 | – | 53.69
313.15 K, x1 = 0.8 | 1311.5 | –
313.15 K, x1 = 0.8995 | 1329.4 | –
313.15 K, x1 = 0.8998 | – | 54.68
313.15 K, x1 = 1 | 1347.4 | 54.81
318.15 K, x1 = 0.1003 | – | 43.44
318.15 K, x1 = 0.101 | 1199.8 | –
318.15 K, x1 = 0.2001 | – | 42.58
318.15 K, x1 = 0.201 | 1213.5 | –
318.15 K, x1 = 0.2997 | – | 42.92
318.15 K, x1 = 0.3002 | 1227.8 | –
318.15 K, x1 = 0.3999 | – | 43.11
318.15 K, x1 = 0.4006 | 1243.6 | –
318.15 K, x1 = 0.4996 | – | 42.41
318.15 K, x1 = 0.5009 | 1258.1 | –
318.15 K, x1 = 0.5991 | 1274.1 | 43.22
318.15 K, x1 = 0.6997 | – | 43.31
318.15 K, x1 = 0.7001 | 1293.8 | –
318.15 K, x1 = 0.7999 | – | 43.66
318.15 K, x1 = 0.8 | 1307.8 | –
318.15 K, x1 = 0.8995 | 1325.7 | –
318.15 K, x1 = 0.8998 | – | 44.39
318.15 K, x1 = 1 | 1343.7 | 44.44
323.15 K, x1 = 0.1003 | – | 35.84
323.15 K, x1 = 0.101 | 1196.3 | –
323.15 K, x1 = 0.2001 | – | 35.27
323.15 K, x1 = 0.201 | 1209.9 | –
323.15 K, x1 = 0.2997 | – | 35.51
323.15 K, x1 = 0.3002 | 1224.2 | –
323.15 K, x1 = 0.3999 | – | 35.68
323.15 K, x1 = 0.4006 | 1240 | –
323.15 K, x1 = 0.4996 | – | 35.08
323.15 K, x1 = 0.5009 | 1254.5 | –
323.15 K, x1 = 0.5991 | 1270.4 | 35.69
323.15 K, x1 = 0.6997 | – | 35.78
323.15 K, x1 = 0.7001 | 1290.3 | –
323.15 K, x1 = 0.7999 | – | 36.02
323.15 K, x1 = 0.8 | 1304.1 | –
323.15 K, x1 = 0.8995 | 1322 | –
323.15 K, x1 = 0.8998 | – | 36.55
323.15 K, x1 = 1 | 1340.1 | 36.5
328.15 K, x1 = 0.1003 | – | 29.96
328.15 K, x1 = 0.101 | 1192.8 | –
328.15 K, x1 = 0.2001 | – | 29.52
328.15 K, x1 = 0.201 | 1206.5 | –
328.15 K, x1 = 0.2997 | – | 29.75
328.15 K, x1 = 0.3002 | 1220.7 | –
328.15 K, x1 = 0.3999 | – | 29.9
328.15 K, x1 = 0.4006 | 1236.4 | –
328.15 K, x1 = 0.4996 | – | 29.42
328.15 K, x1 = 0.5009 | 1250.9 | –
328.15 K, x1 = 0.5991 | 1266.8 | 29.91
328.15 K, x1 = 0.6997 | – | 29.95
328.15 K, x1 = 0.7001 | 1286.7 | –
328.15 K, x1 = 0.7999 | – | 30.13
328.15 K, x1 = 0.8 | 1300.5 | –
328.15 K, x1 = 0.8995 | 1318.3 | –
328.15 K, x1 = 0.8998 | – | 30.58
328.15 K, x1 = 1 | 1336.4 | 30.46
333.15 K, x1 = 0.1003 | – | 25.35
333.15 K, x1 = 0.101 | 1189.3 | –
333.15 K, x1 = 0.2001 | – | 25.03
333.15 K, x1 = 0.201 | 1203 | –
333.15 K, x1 = 0.2997 | – | 25.2
333.15 K, x1 = 0.3002 | 1217.2 | –
333.15 K, x1 = 0.3999 | – | 25.27
333.15 K, x1 = 0.4006 | 1232.9 | –
333.15 K, x1 = 0.4996 | – | 24.96
333.15 K, x1 = 0.5009 | 1247.6 | –
333.15 K, x1 = 0.5991 | 1263.2 | 25.36
333.15 K, x1 = 0.6997 | – | 25.41
333.15 K, x1 = 0.7001 | 1283.1 | –
333.15 K, x1 = 0.7999 | – | 25.55
333.15 K, x1 = 0.8 | 1296.8 | –
333.15 K, x1 = 0.8995 | 1314.7 | –
333.15 K, x1 = 0.8998 | – | 25.83
333.15 K, x1 = 1 | 1332.8 | 25.73
338.15 K, x1 = 0.1003 | – | 21.68
338.15 K, x1 = 0.101 | 1185.9 | –
338.15 K, x1 = 0.2001 | – | 21.42
338.15 K, x1 = 0.201 | 1199.5 | –
338.15 K, x1 = 0.2997 | – | 21.57
338.15 K, x1 = 0.3002 | 1213.7 | –
338.15 K, x1 = 0.3999 | – | 21.63
338.15 K, x1 = 0.4006 | 1229.4 | –
338.15 K, x1 = 0.4996 | – | 21.39
338.15 K, x1 = 0.5009 | 1244.1 | –
338.15 K, x1 = 0.5991 | 1259.7 | 21.68
338.15 K, x1 = 0.6997 | – | 21.72
338.15 K, x1 = 0.7001 | 1279.5 | –
338.15 K, x1 = 0.7999 | – | 21.81
338.15 K, x1 = 0.8 | 1293.2 | –
338.15 K, x1 = 0.8995 | 1311.1 | –
338.15 K, x1 = 0.8998 | – | 22.08
338.15 K, x1 = 1 | 1329.2 | 21.98
343.15 K, x1 = 0.1003 | – | 18.71
343.15 K, x1 = 0.101 | 1182.4 | –
343.15 K, x1 = 0.2001 | – | 18.51
343.15 K, x1 = 0.201 | 1196 | –
343.15 K, x1 = 0.2997 | – | 18.64
343.15 K, x1 = 0.3002 | 1210.3 | –
343.15 K, x1 = 0.3999 | – | 18.68
343.15 K, x1 = 0.4006 | 1225.9 | –
343.15 K, x1 = 0.4996 | – | 18.5
343.15 K, x1 = 0.5009 | 1240.6 | –
343.15 K, x1 = 0.5991 | 1256.2 | 18.74
343.15 K, x1 = 0.6997 | – | 18.78
343.15 K, x1 = 0.7001 | 1276 | –
343.15 K, x1 = 0.7999 | – | 18.84
343.15 K, x1 = 0.8 | 1289.7 | –
343.15 K, x1 = 0.8995 | 1307.5 | –
343.15 K, x1 = 0.8998 | – | 19.06
343.15 K, x1 = 1 | 1325.5 | 18.95
